Experimental data: ChEMBL document CHEMBL5537136 (J Med Chem, 2024)
Activity calls are given as the source filed them. No cut-off for these calls is given here.

What was measured:
[1] = molecular target: T1, Poly [ADP-ribose] polymerase tankyrase-2 (Homo sapiens, UniProt Q9H2K2); assay: Inhibition of TNKS2 (unknown origin) measured after 1 hr incubation by microplate reader assay
T1 sequence (Q9H2K2 whole entry): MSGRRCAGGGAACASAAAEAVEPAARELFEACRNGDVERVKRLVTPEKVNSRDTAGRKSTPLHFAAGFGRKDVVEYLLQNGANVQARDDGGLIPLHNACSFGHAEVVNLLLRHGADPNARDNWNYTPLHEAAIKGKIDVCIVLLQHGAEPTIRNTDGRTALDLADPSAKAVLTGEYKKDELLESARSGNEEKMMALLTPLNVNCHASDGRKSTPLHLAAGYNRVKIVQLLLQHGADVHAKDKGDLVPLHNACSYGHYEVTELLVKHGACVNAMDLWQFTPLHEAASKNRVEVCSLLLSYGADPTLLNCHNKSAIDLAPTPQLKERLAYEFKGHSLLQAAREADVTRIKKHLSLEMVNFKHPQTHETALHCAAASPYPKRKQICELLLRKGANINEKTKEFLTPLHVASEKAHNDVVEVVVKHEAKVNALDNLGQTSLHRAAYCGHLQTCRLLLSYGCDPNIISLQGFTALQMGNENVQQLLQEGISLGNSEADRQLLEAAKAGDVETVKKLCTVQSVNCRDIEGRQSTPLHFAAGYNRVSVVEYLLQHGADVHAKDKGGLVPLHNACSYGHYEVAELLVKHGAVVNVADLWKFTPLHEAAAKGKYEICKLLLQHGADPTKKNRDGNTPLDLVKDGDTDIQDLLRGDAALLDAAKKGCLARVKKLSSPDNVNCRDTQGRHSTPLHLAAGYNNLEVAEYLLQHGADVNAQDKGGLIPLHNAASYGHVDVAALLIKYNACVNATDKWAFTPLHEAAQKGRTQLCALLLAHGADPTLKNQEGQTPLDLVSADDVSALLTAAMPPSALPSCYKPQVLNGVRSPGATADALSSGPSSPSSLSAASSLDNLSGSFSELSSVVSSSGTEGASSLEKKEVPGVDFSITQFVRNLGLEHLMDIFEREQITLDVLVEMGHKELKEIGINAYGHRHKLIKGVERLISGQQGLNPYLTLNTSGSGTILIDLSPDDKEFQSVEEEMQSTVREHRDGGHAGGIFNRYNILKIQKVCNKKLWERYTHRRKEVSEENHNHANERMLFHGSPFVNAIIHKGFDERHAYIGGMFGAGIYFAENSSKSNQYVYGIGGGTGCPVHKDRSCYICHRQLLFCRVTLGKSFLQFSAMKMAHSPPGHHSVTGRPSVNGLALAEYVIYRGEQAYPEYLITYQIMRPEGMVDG

[2] = molecular target: T2, Protein mono-ADP-ribosyltransferase PARP12 (Homo sapiens, UniProt Q9H0J9); assay: Inhibition of PARP12 (unknown origin) measured after 1 hr incubation by microplate reader assay
T2 sequence (Q9H0J9 whole entry): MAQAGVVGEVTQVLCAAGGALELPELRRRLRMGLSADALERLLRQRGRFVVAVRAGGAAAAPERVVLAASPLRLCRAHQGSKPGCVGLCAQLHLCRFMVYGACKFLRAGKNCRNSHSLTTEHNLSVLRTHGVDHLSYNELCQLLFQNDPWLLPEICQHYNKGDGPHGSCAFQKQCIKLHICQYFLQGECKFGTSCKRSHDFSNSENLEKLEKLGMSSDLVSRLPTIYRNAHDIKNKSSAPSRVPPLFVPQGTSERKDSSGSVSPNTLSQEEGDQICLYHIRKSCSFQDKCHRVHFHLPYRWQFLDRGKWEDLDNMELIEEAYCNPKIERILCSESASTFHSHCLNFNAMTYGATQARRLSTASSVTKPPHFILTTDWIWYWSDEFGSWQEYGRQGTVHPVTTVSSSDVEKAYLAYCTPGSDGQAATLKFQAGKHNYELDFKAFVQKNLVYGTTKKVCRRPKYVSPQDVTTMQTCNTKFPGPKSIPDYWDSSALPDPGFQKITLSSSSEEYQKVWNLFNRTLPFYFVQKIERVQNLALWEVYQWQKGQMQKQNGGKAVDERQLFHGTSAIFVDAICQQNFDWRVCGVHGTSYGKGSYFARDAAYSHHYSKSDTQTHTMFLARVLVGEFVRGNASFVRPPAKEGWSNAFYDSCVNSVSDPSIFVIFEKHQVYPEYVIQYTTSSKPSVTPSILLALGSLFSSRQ

[3] = test system: CT26; assay: Induction of anti-tumor immunity in mouse CT26 cells assessed as increase in CXCL10 mRNA expression incubated for 2 days by quantitative real-time PCR analysis; format: functional, cell-based; conditions: dose 0.04-0.44 µM, time 2.0 day
[4] = Tmax in ICR mouse at 1 mg/kg, iv measured upto 24 hrs by LC-MS/MS analysis; format: ADME, organism-based; conditions: in vivo
[5] = AUC (0 to infinity) in ICR mouse at 1 mg/kg, iv measured upto 24 hrs by LC-MS/MS analysis; format: ADME, organism-based; conditions: in vivo
[6] = Half life in ICR mouse at 10 mg/kg, IG measured upto 24 hrs by LC-MS/MS analysis; format: ADME, organism-based; conditions: in vivo, po
[7] = Oral bioavailability in ICR mouse at 10 mg/kg measured upto 24 hrs by LC-MS/MS analysis; format: ADME, organism-based; conditions: in vivo
[8] = Acute toxicity in ICR mouse assessed as change in body weight at 500 mg/kg, po measured after 7 days; format: organism-based; conditions: in vivo, 168 h, time 7 day
[9] = test system: CT26; assay: Antitumor activity in immunocompetent mouse CT26 cell bearing mouse model assessed as tumor growth inhibition at 25 mg/kg, IG treated twice a day measured after 14 days relative to control; format: functional; conditions: CT26, po, 336 h, time 14 day, read-out: TGI
[10] = Toxicity in Balb/c mouse bearing mouse CT26 cells assessed as body weight change at 6.25 to 25 mg/kg, IG measured after 14 days; format: organism-based; conditions: in vivo, po, 336 h, dose 6.25-25 mg/kg, time 14 day
[11] = test system: CT26; assay: Antitumor activity in immunocompetent Balb/c mouse CT26 cell bearing mouse model assessed as change in tumor cell morphology at 6.25 to 25 mg/kg, IG treated twice a day measured after 14 days by hematoxylin and eosin staining based assay; format: functional, organism-based; conditions: dose lower 6.25 mg/kg, dose upper […], time 14.0 day
[12] = test system: CT26; assay: Antitumor activity in immunocompetent mouse CT26 cell bearing Balb/c mouse model assessed as induction of IFN-beta mRNA expression in tumor tissue treated IG twice a day measured after 14 days by quantitative real-time PCR analysis; format: functional; conditions: dose lower 6.25 mg/kg, dose upper […], time 14.0 day

C[C@@H](C(=O)N1CCN(c2ncc(C(F)(F)F)cn2)CC1)n1cc2cccc(C(N)=O)c2n1
IC50 [1]: 0.694 µM | IC50 [2]: 0.664 µM | Activity [3]: Dose-Dependent Effect | Tmax [4]: 4.8 min | AUC(0-inf) [5]: 1.8 µg·h/mL | half-life [6]: 106 min | bioavailability [7]: 94.6% | Activity [8]: Non-Toxic | inhibition in vivo at 25 mg/kg [9]: 83% | Activity [10]: Non-Toxic | Activity [11]: Active | Activity [12]: Dose-Dependent Effect
